The structures appear in SMILES notation.

Holding throughout (experiment): Fungicidal effect on infected agar nutrient media, colony diameter
Assay type in all cases: cell-based

Assay [1] has as its system Sclerotinia sclerotinia. The conditions noted are these: 3rd day after treatment, untreated control 41.7. The method, then: (§1) Agar nutrient media (Diameter 70 MM, thickness 10 mm) infected by Sclerotonia sclerotinia suspension are treated with 20 EC formulations prepared according to Example 27 and comprising 1, 10, 100 and 1000 ppm, respectively of the active ingredient of the Formula I. The fungicidal effect of the compositions is evaluated on the 3rd day after treatment by measuring the diameter of the Fungi colonies.

Assay [2] has as its system Penicillium cyclopium. To be noted: 7th day after treatment, untreated 26.5. As for the experimental part: as §1
The series of measureents described in Example 35 is carried out except that the agar nutrient media are infected by a Penicillium cyclopium Fungi strain and the test is evaluated on the 7th day after treatment.

The subject of assay [3] is Alternaria tenuis. To be noted: 5th day after treatment, untreated control 36.8. The method, then: as §1
The series of measurements according to Example 35 is carried out except that the agar nutrient media are infected by Alternaria Tenius and evaluation is accomplished on the 5th day after treatment.

For `CC(Cl)COP1(=S)OCC(C)S1` (stereo not drawn) [Compound 25], the “Diameter of colony (mm)” value is 38.8 mm in assay [1] (1 ppm); 30.3 mm in assay [1] (10 ppm); 1.0 mm in assay [1] (100 ppm); 0 mm in assay [1] (1000 ppm); 26.0 mm in assay [2] (1 ppm); 19.8 mm in assay [2] (10 ppm). For the same compound, the “Diameter of colony (mm)” value is reported as 7.8 mm in assay [2] (100 ppm); 0 mm in assay [2] (1000 ppm); 33.8 mm in assay [3] (1 ppm); 24.0 mm in assay [3] (10 ppm); 6.5 mm in assay [3] (100 ppm); 0 mm in assay [3] (1000 ppm).
Regarding `CC(Br)COP1(=S)OCC(C)S1` (stereo not drawn) [Compound 26], the “Diameter of colony (mm)” value in assay [1] (1 ppm) stood at 40.9 mm; in assay [1] (10 ppm), 32.1 mm; in assay [1] (100 ppm) it was 1.6 mm; in assay [1] (1000 ppm) it was 0 mm; in assay [2] (1 ppm), 20.5 mm; in assay [2] (10 ppm), 18.8 mm. Besides, the “Diameter of colony (mm)” value in assay [2] (100 ppm) came to 8.5 mm; in assay [2] (1000 ppm), 0 mm; in assay [3] (1 ppm) it was 34.2 mm; in assay [3] (10 ppm), 21.1 mm; in assay [3] (100 ppm) it was 6.2 mm; in assay [3] (1000 ppm), 0 mm.
On to `CC(I)COP1(=S)OCC(C)S1` (stereo not drawn) [Compound 27], for which the “Diameter of colony (mm)” value in assay [1] (1 ppm) stood at 41.2 mm; in assay [1] (10 ppm), 28.6 mm; in assay [1] (100 ppm) it was 1.4 mm; in assay [1] (1000 ppm), 0 mm; in assay [2] (1 ppm) it was 23.8 mm; in assay [2] (10 ppm), 17.5 mm. Also, the “Diameter of colony (mm)” value in assay [2] (100 ppm) is given as 4.6 mm; in assay [2] (1000 ppm) it was 0 mm; in assay [3] (1 ppm), 33.5 mm; in assay [3] (10 ppm), 22.4 mm; in assay [3] (100 ppm), 8.8 mm; in assay [3] (1000 ppm), 0 mm.
Take `CC(Cl)C(C)OP1(=S)OCCS1` (stereo not drawn) [Compound 28]: the “Diameter of colony (mm)” value in assay [1] (1 ppm) is on record as 33.6 mm; in assay [1] (10 ppm), 27.4 mm; in assay [1] (100 ppm), 0 mm; in assay [1] (1000 ppm), 0 mm; in assay [2] (1 ppm), 18.2 mm; in assay [2] (10 ppm), 14.7 mm. Also, the “Diameter of colony (mm)” value in assay [2] (100 ppm) worked out at 5.7 mm; in assay [2] (1000 ppm), 0 mm; in assay [3] (1 ppm) it was 34.2 mm; in assay [3] (10 ppm), 22.4 mm; in assay [3] (100 ppm), 4.8 mm; in assay [3] (1000 ppm), 0 mm.
As for `CC(Br)C(C)OP1(=S)OCCS1` (stereo not drawn) [Compound 29], the “Diameter of colony (mm)” value is reported as 31.9 mm in assay [1] (1 ppm); 25.2 mm in assay [1] (10 ppm); 1.2 mm in assay [1] (100 ppm); 0 mm in assay [1] (1000 ppm); 25.0 mm in assay [2] (1 ppm); 19.2 mm in assay [2] (10 ppm). Moreover, the “Diameter of colony (mm)” value is reported as 8.0 mm in assay [2] (100 ppm); 0 mm in assay [2] (1000 ppm); 33.2 mm in assay [3] (1 ppm); 23.6 mm in assay [3] (10 ppm); 6.5 mm in assay [3] (100 ppm); 0 mm in assay [3] (1000 ppm).
As for `CC(I)C(C)OP1(=S)OCCS1` (stereo not drawn) [Compound 30], the “Diameter of colony (mm)” value is 34.8 mm in assay [1] (1 ppm); 30.0 mm in assay [1] (10 ppm); 0 mm in assay [1] (100 ppm); 0 mm in assay [1] (1000 ppm); 21.2 mm in assay [2] (1 ppm); 20.0 mm in assay [2] (10 ppm). Besides, the “Diameter of colony (mm)” value in assay [2] (100 ppm) is 7.2 mm; in assay [2] (1000 ppm) it was 0 mm; in assay [3] (1 ppm) it was 30.1 mm; in assay [3] (10 ppm), 26.7 mm; in assay [3] (100 ppm) it was 7.2 mm; in assay [3] (1000 ppm), 0 mm.
In the case of `CC1COP(=S)(OC(C)C(C)Cl)S1` (stereo not drawn) [Compound 31], the “Diameter of colony (mm)” value in assay [1] (1 ppm) was determined as 37.4 mm; in assay [1] (10 ppm), 29.2 mm; in assay [1] (100 ppm), 4.0 mm; in assay [1] (1000 ppm), 0 mm; in assay [2] (1 ppm), 23.6 mm; in assay [2] (10 ppm) it was 14.9 mm. The “Diameter of colony (mm)” value in assay [2] (100 ppm) came to 9.0 mm; in assay [2] (1000 ppm), 0 mm; in assay [3] (1 ppm), 36.0 mm; in assay [3] (10 ppm), 23.6 mm; in assay [3] (100 ppm) it was 8.1 mm; in assay [3] (1000 ppm) it was 0 mm.
In the case of `CC1COP(=S)(OC(C)C(C)Br)S1` (stereo not drawn) [Compound 32], the “Diameter of colony (mm)” value is 38.9 mm in assay [1] (1 ppm); 30.0 mm in assay [1] (10 ppm); 3.2 mm in assay [1] (100 ppm); 0 mm in assay [1] (1000 ppm); 19.4 mm in assay [2] (1 ppm); 16.7 mm in assay [2] (10 ppm). The “Diameter of colony (mm)” value is given as 7.2 mm in assay [2] (100 ppm); 0 mm in assay [2] (1000 ppm); 31.2 mm in assay [3] (1 ppm); 27.4 mm in assay [3] (10 ppm); 7.2 mm in assay [3] (100 ppm); 0 mm in assay [3] (1000 ppm).
Turning to `CC1COP(=S)(OC(C)C(C)I)S1` (stereo not drawn) [Compound 33], the “Diameter of colony (mm)” value in assay [1] (1 ppm) amounted to 33.2 mm; in assay [1] (10 ppm), 26.4 mm; in assay [1] (100 ppm), 0 mm; in assay [1] (1000 ppm), 0 mm; in assay [2] (1 ppm), 22.3 mm; in assay [2] (10 ppm) it was 20.7 mm. Moreover, the “Diameter of colony (mm)” value in assay [2] (100 ppm) is given as 6.1 mm; in assay [2] (1000 ppm), 0 mm; in assay [3] (1 ppm), 33.0 mm; in assay [3] (10 ppm) it was 21.3 mm; in assay [3] (100 ppm), 6.3 mm; in assay [3] (1000 ppm), 0 mm.
In the case of `CC(CCl)OP1(=S)OC(C)C(C)S1` (stereo not drawn) [Compound 34, 2-(0-1'-methyl-2'-chloroethyl)-2-thio-4,5-dimethyl-1,3,2-oxathiophospholane], the “Diameter of colony (mm)” value in assay [1] (1 ppm) was 34.6 mm; in assay [1] (10 ppm), 23.9 mm; in assay [1] (100 ppm) it was 1.3 mm; in assay [1] (1000 ppm), 0 mm; in assay [2] (1 ppm), 19.7 mm; in assay [2] (10 ppm) it was 16.5 mm. Besides, the “Diameter of colony (mm)” value in assay [2] (100 ppm) came to 4.9 mm; in assay [2] (1000 ppm), 0 mm; in assay [3] (1 ppm), 30.3 mm; in assay [3] (10 ppm), 25.9 mm; in assay [3] (100 ppm) it was 5.7 mm; in assay [3] (1000 ppm), 0 mm.
In the case of `CC(CBr)OP1(=S)OC(C)C(C)S1` (stereo not drawn) [Compound 35], the “Diameter of colony (mm)” value in assay [1] (1 ppm) was 38.1 mm; in assay [1] (10 ppm), 25.7 mm; in assay [1] (100 ppm) it was 2.6 mm; in assay [1] (1000 ppm), 0 mm; in assay [2] (1 ppm), 25.1 mm; in assay [2] (10 ppm) it was 14.7 mm. The “Diameter of colony (mm)” value is recorded as 8.3 mm in assay [2] (100 ppm); 0 mm in assay [2] (1000 ppm); 34.7 mm in assay [3] (1 ppm); 27.1 mm in assay [3] (10 ppm); 6.2 mm in assay [3] (100 ppm); 0 mm in assay [3] (1000 ppm).
